ChEMBL document CHEMBL4823278, “Metal binding 6-arylthio-3-hydroxypyrimidine-2,4-diones inhibited human cytomegalovirus by targeting the pUL89 endonuclease of the terminase complex” (Eur J Med Chem, 2021)

Key:
Human betaherpesvirus 5 [1] = assay type: functional; settings: Human betaherpesvirus 5, HEL 299, time 168 hrs
[2] = molecular target: T1, Tripartite terminase subunit 3 (Human betaherpesvirus 5) (UniProt P16732); test: Inhibition of human cytomegalovirus pUL89 endonuclease activity using 60 bp dsDNA substrate at 20 uM incubated for 30 mins by ELISA-based biochemical assay relative to control
T1 sequence (whole entry): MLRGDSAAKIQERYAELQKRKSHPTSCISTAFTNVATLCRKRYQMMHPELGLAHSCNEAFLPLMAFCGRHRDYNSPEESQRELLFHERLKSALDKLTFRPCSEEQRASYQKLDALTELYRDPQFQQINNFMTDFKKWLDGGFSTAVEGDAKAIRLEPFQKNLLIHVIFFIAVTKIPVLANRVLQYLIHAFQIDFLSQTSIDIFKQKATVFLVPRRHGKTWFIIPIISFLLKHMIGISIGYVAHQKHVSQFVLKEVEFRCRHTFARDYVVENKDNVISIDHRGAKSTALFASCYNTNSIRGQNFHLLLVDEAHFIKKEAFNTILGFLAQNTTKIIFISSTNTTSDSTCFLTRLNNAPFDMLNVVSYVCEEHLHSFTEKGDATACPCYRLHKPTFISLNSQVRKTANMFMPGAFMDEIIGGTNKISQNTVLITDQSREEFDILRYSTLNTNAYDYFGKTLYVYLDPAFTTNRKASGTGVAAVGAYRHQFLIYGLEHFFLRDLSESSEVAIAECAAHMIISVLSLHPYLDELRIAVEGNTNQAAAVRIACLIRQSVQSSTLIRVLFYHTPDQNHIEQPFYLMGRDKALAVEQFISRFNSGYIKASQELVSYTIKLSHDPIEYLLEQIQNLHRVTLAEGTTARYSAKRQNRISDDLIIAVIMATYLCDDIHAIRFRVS

HEL 299 [3] = test: (§1) Cytotoxicity against human HEL 299 cells assessed as cell viability at 10 uM incubated for 168 hrs by MTS-based tetrazolium reduction assay relative to control; settings: hel 299, 168 h, 10 µM
[4] = as §1; settings: HEL 299 cells, read-out: Activity
[5] = Apparent permeability of the compound incubated for 5 hrs by LC-MS/MS analysis based PAMPA method; assay type: ADME; settings: for Papp: pampa, 5 h
[6] = molecular target: T2, Tripartite terminase subunit 3 (Human betaherpesvirus 5, UniProt P16732)
T2 sequence (P16732 whole entry): T1 sequence (whole entry)
Description: Inhibition of human cytomegalovirus pUL89 endonuclease activity using 60 bp dsDNA substrate incubated for 30 mins by ELISA-based biochemical assay

[7] = molecular target: T1, Tripartite terminase subunit 3 (Human betaherpesvirus 5); settings: dose 20.0 µM
HEL 299 [8] = settings: human, hel 299, 168 h
Human betaherpesvirus 5 [9] = assay type: functional, cell-based; settings: Human betaherpesvirus 5, HEL 299, 168 h

Compound: CCn1c(Sc2ccccc2F)cc(=O)n(O)c1=O
- inhibition at 10 µM (Human betaherpesvirus 5 [1]): -0.7%
- inhibition [2]: 75%
- Activity (HEL 299 [3]): 124%

Compound: O=c1cc(Sc2ccc(-c3ccc(F)cc3)cc2)[nH]c(=O)n1O
- inhibition at 10 µM (Human betaherpesvirus 5 [1]): 79%
- inhibition [2]: 19%
- viability at 168 h, 10 µM [4]: 99%

Compound: Cn1c(Sc2ccc(C(F)(F)F)cc2)cc(=O)n(O)c1=O
- inhibition at 10 µM (Human betaherpesvirus 5 [1]): 50%
- viability at 168 h, 10 µM [4]: 107%

Compound: CCc1ccccc1Sc1cc(=O)n(O)c(=O)n1C
- Papp [5]: 5.8 10^-6 cm/s
- inhibition at 10 µM (Human betaherpesvirus 5 [1]): 87%
- viability at 168 h, 10 µM [4]: 108%

Compound: CCn1c(Sc2cccc(Cl)c2)cc(=O)n(O)c1=O
- IC50 [6]: 5.7 µM
- Papp [5]: 5.1 10^-6 cm/s
- inhibition at 10 µM (Human betaherpesvirus 5 [1]): 101%
- inhibition [2]: 59%
- ΔTm [7]: 0.74 °C
- viability at 168 h, 10 µM [4]: 1.3%

Compound: Nc1nc(O)c2ncn(COC(CO)CO)c2n1 [GANCICLOVIR]
- CC50 (HEL 299 [8]): > 50 µM

Compound: O=c1cc(Sc2cccc(-c3ccc(F)cc3)c2)[nH]c(=O)n1O
- inhibition at 10 µM (Human betaherpesvirus 5 [1]): 19%
- inhibition [2]: 10%
- viability at 168 h, 10 µM [4]: 100%

Compound: O=c1cc(Sc2ccc(F)cc2)[nH]c(=O)n1O
- inhibition at 10 µM (Human betaherpesvirus 5 [1]): -2.3%
- inhibition [2]: 54%
- viability at 168 h, 10 µM [4]: 118%

Compound: Cn1c(Sc2ccccc2Br)cc(=O)n(O)c1=O
- viability at 168 h, 10 µM [4]: 117%

Compound: O=c1cc(Sc2ccc(-c3ccc(C(F)(F)F)cc3)cc2)[nH]c(=O)n1O
- inhibition at 10 µM (Human betaherpesvirus 5 [1]): 84%
- inhibition [2]: 12%
- viability at 168 h, 10 µM [4]: 107%

Compound: O=c1cc(Sc2cccc(F)c2)[nH]c(=O)n1O
- inhibition at 10 µM (Human betaherpesvirus 5 [1]): 83%
- inhibition [2]: 40%
- Activity (HEL 299 [3]): 65%

Compound: CCn1c(Sc2cccc(Br)c2)cc(=O)n(O)c1=O
- inhibition at 10 µM (Human betaherpesvirus 5 [1]): 100%
- inhibition [2]: 71%
- viability at 168 h, 10 µM [4]: 7%

Compound: O=c1cc(Sc2ccc(C(F)(F)F)cc2)[nH]c(=O)n1O
- inhibition at 10 µM (Human betaherpesvirus 5 [1]): -9%
- inhibition [2]: 16%
- viability at 168 h, 10 µM [4]: 119%

Compound: Cn1c(Sc2cccc(Cl)c2)cc(=O)n(O)c1=O
- inhibition at 10 µM (Human betaherpesvirus 5 [1]): 74%
- inhibition [2]: 37%
- CC50 (HEL 299 [8]): 23.1 µM
- EC50 (Human betaherpesvirus 5 [9]): 4.7 µM
- viability at 168 h, 10 µM [4]: 117%

Compound: COc1ccc(-c2cccc(Sc3cc(=O)n(O)c(=O)[nH]3)c2)cc1F
- inhibition at 10 µM (Human betaherpesvirus 5 [1]): -11%
- inhibition [2]: 16%
- viability at 168 h, 10 µM [4]: 106%

Compound: CCn1c(Sc2ccc(F)cc2)cc(=O)n(O)c1=O
- Papp [5]: 4.1 10^-6 cm/s
- inhibition at 10 µM (Human betaherpesvirus 5 [1]): 67%
- viability at 168 h, 10 µM [4]: 114%

Compound: Cn1c(Sc2cccc(Br)c2)cc(=O)n(O)c1=O
- IC50 [6]: 6.5 µM
- inhibition at 10 µM (Human betaherpesvirus 5 [1]): 100%
- ΔTm [7]: 0.76 °C
- viability at 168 h, 10 µM [4]: 14%

Compound: COc1ccc(-c2ccc(Sc3cc(=O)n(O)c(=O)[nH]3)cc2)cc1
- Papp at 5 h ([5]; PAMPA): 1.1 ×10⁻⁶ cm/s
- inhibition at 10 µM (Human betaherpesvirus 5 [1]): 80%
- inhibition [2]: 22%
- CC50 (HEL 299 [8]): 20.3 µM
- EC50 (Human betaherpesvirus 5 [9]): 7.2 µM
- viability at 168 h, 10 µM [4]: 94%

Compound: O=c1cc(Sc2ccc([N+](=O)[O-])cc2)[nH]c(=O)n1O
- IC50 [6]: 3.6 µM
- Papp [5]: 0.017 10^-6 cm/s
- inhibition at 10 µM (Human betaherpesvirus 5 [1]): -5.1%
- inhibition [2]: 58%
- ΔTm [7]: 2.8 °C
- viability at 168 h, 10 µM [4]: 115%

Compound: O=c1cc(Sc2ccccc2Br)[nH]c(=O)n1O
- inhibition at 10 µM (Human betaherpesvirus 5 [1]): -14%
- inhibition [2]: 21%
- viability at 168 h, 10 µM [4]: 101%

Compound: O=c1cc(Sc2cccc(-c3ccc(C(F)(F)F)cc3)c2)[nH]c(=O)n1O
- inhibition at 10 µM (Human betaherpesvirus 5 [1]): 70%
- inhibition [2]: 22%
- viability at 168 h, 10 µM [4]: 110%

Compound: COc1cccc(Sc2cc(=O)n(O)c(=O)n2C)c1
- Papp [5]: 2.4 10^-6 cm/s
- inhibition at 10 µM (Human betaherpesvirus 5 [1]): 91%
- viability at 168 h, 10 µM [4]: 135%

Compound: CCn1c(Sc2ccc(Br)cc2)cc(=O)n(O)c1=O
- inhibition at 10 µM (Human betaherpesvirus 5 [1]): 100%
- inhibition [2]: 66%
- viability at 168 h, 10 µM [4]: 16%

Compound: Cn1c(Sc2cccc(C(F)(F)F)c2)cc(=O)n(O)c1=O
- inhibition at 10 µM (Human betaherpesvirus 5 [1]): 68%
- viability at 168 h, 10 µM [4]: 99%

Compound: COc1cccc(-c2ccc(Sc3cc(=O)n(O)c(=O)[nH]3)cc2)c1
- inhibition at 10 µM (Human betaherpesvirus 5 [1]): 71%
- inhibition [2]: 11%
- viability at 168 h, 10 µM [4]: 107%

Compound: O=c1cc(Sc2ccc(O)cc2)[nH]c(=O)n1O
- inhibition at 10 µM (Human betaherpesvirus 5 [1]): 1%
- inhibition [2]: 27%
- viability at 168 h, 10 µM [4]: 118%

Compound: Cc1ccc(-c2cccc(Nc3cc(=O)n(O)c(=O)[nH]3)c2)c(C)c1
- IC50 [6]: 3.5 µM
- ΔTm [7]: -2.2 °C

Compound: O=c1cc(Sc2cccc(-c3ccc(Cl)cc3)c2)[nH]c(=O)n1O
- inhibition at 10 µM (Human betaherpesvirus 5 [1]): 81%
- viability at 168 h, 10 µM [4]: 100%

Compound: O=C(O)c1cn(Cc2ccc(Cl)c(F)c2)cc(O)c1=O
- ΔTm [7]: 2.4 °C

Compound: CCn1c(Sc2ccccc2Br)cc(=O)n(O)c1=O
- inhibition at 10 µM (Human betaherpesvirus 5 [1]): 100%
- inhibition [2]: 64%
- viability at 168 h, 10 µM [4]: 16%

Compound: Cn1c(Sc2ccc(Cl)cc2)cc(=O)n(O)c1=O
- Papp [5]: 4.5 10^-6 cm/s
- inhibition at 10 µM (Human betaherpesvirus 5 [1]): 35%
- viability at 168 h, 10 µM [4]: 132%

Compound: O=c1cc(Sc2ccccc2)[nH]c(=O)n1O
- inhibition at 10 µM (Human betaherpesvirus 5 [1]): -16%
- inhibition [2]: 30%
- viability at 168 h, 10 µM [4]: 108%

Compound: Cn1c(Sc2ccc(F)cc2)cc(=O)n(O)c1=O
- IC50 [6]: 12 µM
- Papp [5]: 3 10^-6 cm/s
- inhibition at 10 µM (Human betaherpesvirus 5 [1]): 0%
- inhibition [2]: 90%
- ΔTm [7]: 0.86 °C
- viability at 168 h, 10 µM [4]: 117%

Compound: CCn1c(Sc2cccc(F)c2)cc(=O)n(O)c1=O
- IC50 [6]: 23 µM
- Papp [5]: 3.4 10^-6 cm/s
- inhibition at 10 µM (Human betaherpesvirus 5 [1]): 12%
- inhibition [2]: 34%
- ΔTm [7]: 0.86 °C
- viability at 168 h, 10 µM [4]: 126%

Compound: Cn1c(Sc2ccc(Br)cc2)cc(=O)n(O)c1=O
- inhibition at 10 µM (Human betaherpesvirus 5 [1]): 57%
- viability at 168 h, 10 µM [4]: 113%

Compound: Cn1c(Sc2ccccc2)cc(=O)n(O)c1=O
- inhibition at 10 µM (Human betaherpesvirus 5 [1]): 21%
- inhibition [2]: 65%
- viability at 168 h, 10 µM [4]: 115%

Compound: COc1cccc(Sc2cc(=O)n(O)c(=O)[nH]2)c1
- IC50 [6]: 1.9 µM
- Papp [5]: 0.21 10^-6 cm/s
- inhibition at 10 µM (Human betaherpesvirus 5 [1]): -13%
- inhibition [2]: 92%
- ΔTm [7]: 1.8 °C
- viability at 168 h, 10 µM [4]: 114%

Compound: Cn1c(Sc2cccc3ccccc23)cc(=O)n(O)c1=O
- Papp [5]: 5.1 10^-6 cm/s
- inhibition at 10 µM (Human betaherpesvirus 5 [1]): 98%
- viability at 168 h, 10 µM [4]: 111%

Compound: O=c1cc(Sc2ccc(Br)cc2)[nH]c(=O)n1O
- inhibition at 10 µM (Human betaherpesvirus 5 [1]): 12%
- inhibition [2]: 14%
- viability at 168 h, 10 µM [4]: 129%

Compound: O=c1cc(Sc2cccc(Br)c2)[nH]c(=O)n1O
- inhibition at 10 µM (Human betaherpesvirus 5 [1]): -6%
- inhibition [2]: 16%
- viability at 168 h, 10 µM [4]: 123%

Compound: CCc1ccc(Sc2cc(=O)n(O)c(=O)n2C)cc1
- IC50 [6]: 11.8 µM
- Papp [5]: 6.6 10^-6 cm/s
- inhibition at 10 µM (Human betaherpesvirus 5 [1]): 21%
- inhibition [2]: 67%
- ΔTm [7]: 0.29 °C
- viability at 168 h, 10 µM [4]: 121%

Compound: O=c1cc(Sc2ccc(-c3ccc(Cl)cc3)cc2)[nH]c(=O)n1O
- inhibition at 10 µM (Human betaherpesvirus 5 [1]): 82%
- inhibition [2]: 11%
- viability at 168 h, 10 µM [4]: 102%

Compound: O=c1cc(Sc2cccc(-c3cccc(C(F)(F)F)c3)c2)[nH]c(=O)n1O
- inhibition at 10 µM (Human betaherpesvirus 5 [1]): 33%
- inhibition [2]: 20%
- viability at 168 h, 10 µM [4]: 118%

Compound: Cn1c(Sc2cccc(F)c2)cc(=O)n(O)c1=O
- IC50 [6]: 24 µM
- Papp [5]: 2.5 10^-6 cm/s
- inhibition at 10 µM (Human betaherpesvirus 5 [1]): -3.8%
- inhibition [2]: 37%
- ΔTm [7]: 0.56 °C
- viability at 168 h, 10 µM [4]: 125%

Compound: Cc1ccc(-c2ccc(Nc3cc(=O)n(O)c(=O)n3C)cc2)cc1
- IC50 [6]: 3.3 µM
- ΔTm [7]: -2.8 °C

Compound: CCn1c(Sc2ccc(Cl)cc2)cc(=O)n(O)c1=O
- inhibition at 10 µM (Human betaherpesvirus 5 [1]): 98%
- inhibition [2]: 76%
- viability at 168 h, 10 µM [4]: 40%
